Measurements: patent publication US10472341B2, “Bicyclic tetrahydrothiazepine derivatives useful for the treatment of neoplastic and/or infectious diseases” (APEIRON BIOLOGICS AG, priority 2015, dated 2019)

Experiments:
Type in all cases: cell-based, human
CD8 T cells = test: Reactivity of isolated CFSE-labeled CD8 T cells to TCR stimulation (anti-CD3/anti-CD28): cytokines, proliferation, CD25; details: for CD25 expression [% positive cells] Average / Cell Proliferation [Cell divisions/cell] Average / IFN-gamma production [ng/ml] Average / IL-2 production [ng/ml] Average / TNF-alpha production [ng/ml] Average: anti-CD3/anti-CD28
Experimental: • Buffy coat content was transferred to sterile plastic bottle and filled up to 480 ml with PBS, and distributed equally to 16×50 ml tubes (30 ml/tube) • Underlayed with ˜11 ml Lymphoprep and centrifuged 20 min (2200 rpm) • The interphase containing lymphocytes was taken off with transfer pipette, cells were washed twice with PBS and pooled to one tube to determine cell count (Coulter Diff ACT) Isolation of Immune Cell Subfractions from PBMCs by MACS • PBMCs were resuspended in MACS buffer (80 μl MACS-buffer/10^7 cells) and cells were isolated with Auto-MACS device using respective kits following manufacturer's recommendations TCR Stimulation and Measurement of T Cell Activation
Isolated T cells were plated in Xvivo medium at 1.5*10 ^5 cells per in 96 well culture plates and TCR-stimulated with anti-CD3/28 mAbs in the presence of compound as indicated. Cytokine production was determined at 24 h or 48 h following TCR stimulation in cell culture supernatants using commercially available ELISA kits (BD and eBioscience) as recommended by the manufacturer. T cell proliferation and CD25 expression (CD25-PC5 reagent purchased from Beckman Coulter) was determined by flow cytometry (Beckman-Coulter FC500) and analysed with Kaluza Software. For measurement of CD69 expression, isolated CD4 and CD8 T cells were plated in Xvivo medium at […] per in 96 well culture plates and TCR-stimulated with anti-CD3/28 mAbs in the presence of compound. CD69 expression was determined at 24 h following TCR stimulation by flow cytometry (CD4eF450, CD8APCeF780 and CD69-PC7 reagent purchased from eBioscience) and analysed with Kaluza Software.
Isolated CD8 T cells were CFSE-labeled and stimulated with anti-CD3 and anti-CD28 antibodies.

NK cells = test: NK cell stimulation by IL-2: IFN-gamma and TNF-alpha release; details: for IFN-gamma / TNF-alpha: IL-2 stimulation
Experimental: Isolated NK cells were plated in Xvivo medium at 1.5*10^5 cells per in 96 well culture plates and stimulated with 50 ng/ml IL-2 (Aldesleukin) where indicated. Cytokine secretion was determined by ELISA, immune cell activation by flow cytometry (Beckman-Coulter Abs CD25-PC5, CD69-PC7 and acquisition on Beckman-Coulter Gallios) using 7-AAD exclusion as criterion for living cells. IL-2 is a key factor for survival, proliferation and activation of NK cells, thus linking adaptive immunity mediated by T cells with the innate immunity mediated by NK cells. Especially CD8 T cells release IL-2 locally at the site of antigen-encounter in the tumor, and thus support and activate NK cell anti-tumor functions. Compound example 67 has been chosen as an example. […] Thus, compounds have a unique potential to support the interlinked anti-tumor immunity of T and NK cells in the physiological context in vivo.

Monocytes = test: FC receptor stimulation on myeloid cells (monocytes, precoated anti-GD2-Abs): TNF-alpha, IL-1, IL-6
Experimental: Isolated Monocytes were plated in Xvivo medium at 1.5*10^5 cells per in 96 well culture plates and stimulated by precoated anti-GD2-Abs (10 μg/ml, Apeiron) where indicated. Cytokine secretion was determined by enzyme-linked immunosorbent assay (ELISA). The results of the above experiment titled “Enhancement of reactivity of immune cells to stimulation by tumor-cell bound therapeutic antibody” indicate that compounds can enhance FcR stimulation of immune cells. However, in a set-up as used therein, it is difficult to subtract the effects of tumor-cell contact from the effects of Fc-receptor stimulation. Therefore, the effect of FcR-stimulation by the same anti-GD2-Ab was tested in a tumor-cell free assay set-up, where the anti-GD2 antibodies were coated to cell culture plates, thereby mimicking cell-bound antibodies.

Compound: CCCCNC(=O)c1ccc2c(c1)N(Cc1ccc(OC(F)(F)F)cc1)C(=O)[C@@H](N)CS2(=O)=O.Cl [Example 67, (3R)-3-amino-N-butyl-1,1,4-trioxo-5-{[4-(trifluoromethoxy)phenyl]methyl}-2,3,4,5-tetrahydro-1λ^6,5-benzothiazepine-7-carboxamide hydrochloride]
- CD25 expression [% positive cells] Average (CD8 T cells; 0.05 μM): 61.07 % positive cells
- Cell Proliferation [Cell divisions/cell] Average (CD8 T cells; 0.05 μM): 1.57 Cell divisions/cell
- IFN-gamma production [ng/ml] Average (CD8 T cells; 0.05 μM): 0.14 ng/mL
- IL-2 production [ng/ml] Average (CD8 T cells; 0.05 μM): 1.17 ng/mL
- TNF-alpha production [ng/ml] Average (CD8 T cells; 0.05 μM): 1.09 ng/mL
- CD25 expression [% positive cells] Average (CD8 T cells; 0.1 μM): 64.24 % positive cells
- Cell Proliferation [Cell divisions/cell] Average (CD8 T cells; 0.1 μM): 1.72 Cell divisions/cell
- IFN-gamma production [ng/ml] Average (CD8 T cells; 0.1 μM): 0.22 ng/mL
- IL-2 production [ng/ml] Average (CD8 T cells; 0.1 μM): 2.32 ng/mL
- TNF-alpha production [ng/ml] Average (CD8 T cells; 0.1 μM): 1.55 ng/mL
- CD25 expression [% positive cells] Average (CD8 T cells; 0.25 μM): 68.81 % positive cells
- Cell Proliferation [Cell divisions/cell] Average (CD8 T cells; 0.25 μM): 1.84 Cell divisions/cell
- IFN-gamma production [ng/ml] Average (CD8 T cells; 0.25 μM): 0.31 ng/mL
- IL-2 production [ng/ml] Average (CD8 T cells; 0.25 μM): 4.01 ng/mL
- TNF-alpha production [ng/ml] Average (CD8 T cells; 0.25 μM): 2.16 ng/mL
- CD25 expression [% positive cells] Average (CD8 T cells; 0.5 μM): 67.89 % positive cells
- Cell Proliferation [Cell divisions/cell] Average (CD8 T cells; 0.5 μM): 1.88 Cell divisions/cell
- IFN-gamma production [ng/ml] Average (CD8 T cells; 0.5 μM): 0.43 ng/mL
- IL-2 production [ng/ml] Average (CD8 T cells; 0.5 μM): 7.64 ng/mL
- TNF-alpha production [ng/ml] Average (CD8 T cells; 0.5 μM): 3.13 ng/mL
- CD25 expression [% positive cells] Average (CD8 T cells; 1 μM): 71.00 % positive cells
- Cell Proliferation [Cell divisions/cell] Average (CD8 T cells; 1 μM): 1.94 Cell divisions/cell
- IFN-gamma production [ng/ml] Average (CD8 T cells; 1 μM): 0.61 ng/mL
- IL-2 production [ng/ml] Average (CD8 T cells; 1 μM): 11.30 ng/mL
- TNF-alpha production [ng/ml] Average (CD8 T cells; 1 μM): 4.04 ng/mL
- CD25 expression [% positive cells] Average (CD8 T cells; 2.5 μM): 71.35 % positive cells
- Cell Proliferation [Cell divisions/cell] Average (CD8 T cells; 2.5 μM): 1.93 Cell divisions/cell
- IFN-gamma production [ng/ml] Average (CD8 T cells; 2.5 μM): 0.79 ng/mL
- IL-2 production [ng/ml] Average (CD8 T cells; 2.5 μM): 16.77 ng/mL
- TNF-alpha production [ng/ml] Average (CD8 T cells; 2.5 μM): 5.37 ng/mL
- CD25 expression [% positive cells] Average (CD8 T cells; 5 μM): 71.76 % positive cells
- Cell Proliferation [Cell divisions/cell] Average (CD8 T cells; 5 μM): 1.91 Cell divisions/cell
- IFN-gamma production [ng/ml] Average (CD8 T cells; 5 μM): 0.91 ng/mL
- IL-2 production [ng/ml] Average (CD8 T cells; 5 μM): 17.30 ng/mL
- TNF-alpha production [ng/ml] Average (CD8 T cells; 5 μM): 6.68 ng/mL
- CD25 expression [% positive cells] Average (CD8 T cells; 10 μM): 71.90 % positive cells
- Cell Proliferation [Cell divisions/cell] Average (CD8 T cells; 10 μM): 1.83 Cell divisions/cell
- IFN-gamma production [ng/ml] Average (CD8 T cells; 10 μM): 1.15 ng/mL
- IL-2 production [ng/ml] Average (CD8 T cells; 10 μM): 19.63 ng/mL
- TNF-alpha production [ng/ml] Average (CD8 T cells; 10 μM): 7.50 ng/mL
- CD25 expression [% positive cells] Average (CD8 T cells; 20 μM): 69.70 % positive cells
- Cell Proliferation [Cell divisions/cell] Average (CD8 T cells; 20 μM): 1.68 Cell divisions/cell
- IFN-gamma production [ng/ml] Average (CD8 T cells; 20 μM): 1.32 ng/mL
- IL-2 production [ng/ml] Average (CD8 T cells; 20 μM): 19.92 ng/mL
- TNF-alpha production [ng/ml] Average (CD8 T cells; 20 μM): 7.13 ng/mL
- production of IL-2, IFN-gamma and TNF-alpha, CD25 expression and T cell proliferation (CD8 T cells; anti-CD3 and anti-CD28): strongly enhanced
- IFN-gamma (NK cells; 0.03 μM): 0.71 ng/mL
- TNF-alpha (NK cells; 0.03 μM): 0.04 ng/mL
- IFN-gamma (NK cells; 0.1 μM): 0.72 ng/mL
- TNF-alpha (NK cells; 0.1 μM): 0.03 ng/mL
- IFN-gamma (NK cells; 0.3 μM): 1.00 ng/mL
- TNF-alpha (NK cells; 0.3 μM): 0.06 ng/mL
- IFN-gamma (NK cells; 1 μM): 1.23 ng/mL
- TNF-alpha (NK cells; 1 μM): 0.09 ng/mL
- IFN-gamma (NK cells; 3 μM): 1.50 ng/mL
- TNF-alpha (NK cells; 3 μM): 0.10 ng/mL
- IFN-gamma (NK cells; 10 μM): 1.40 ng/mL
- TNF-alpha (NK cells; 10 μM): 0.12 ng/mL
- IFN-gamma (NK cells; 30 μM): 1.22 ng/mL
- TNF-alpha (NK cells; 30 μM): 0.14 ng/mL
- responsiveness of NK cells upon IL-2 activation (release of IFN-gamma and TNF-alpha) (NK cells; NK cells, IL-2): can directly enhance the responsiveness of NK cells upon IL-2 activation

Compound: CC(C)NC(=O)c1cc2c(cc1F)S(=O)(=O)C[C@H](N)C(=O)N2Cc1ccc(Cl)cc1.Cl [Example 77, (3R)-3-amino-5-[(4-chlorophenyl)methyl]-8-fluoro-1,1,4-trioxo-N-(propan-2-yl)-2,3,4,5-tetrahydro-1λ^6,5-benzothiazepine-7-carboxamide hydrochloride]
- IL-1 (Monocytes; FcR stimulated, 0.01 μM): 1.14 ng/mL
- IL-6 (Monocytes; FcR stimulated, 0.01 μM): 1.61 ng/mL
- TNF-alpha (Monocytes; FcR stimulated, 0.01 μM): 1.62 ng/mL
- IL-1 (Monocytes; FcR stimulated, 0.03 μM): 1.52 ng/mL
- IL-6 (Monocytes; FcR stimulated, 0.03 μM): 2.33 ng/mL
- TNF-alpha (Monocytes; FcR stimulated, 0.03 μM): 2.49 ng/mL
- IL-1 (Monocytes; FcR stimulated, 0.1 μM): 1.09 ng/mL
- IL-6 (Monocytes; FcR stimulated, 0.1 μM): 2.10 ng/mL
- TNF-alpha (Monocytes; FcR stimulated, 0.1 μM): 2.57 ng/mL
- IL-1 (Monocytes; FcR stimulated, 0.3 μM): 4.16 ng/mL
- IL-6 (Monocytes; FcR stimulated, 0.3 μM): 5.65 ng/mL
- TNF-alpha (Monocytes; FcR stimulated, 0.3 μM): 6.57 ng/mL
- IL-1 (Monocytes; FcR stimulated, 1 μM): 5.88 ng/mL
- IL-6 (Monocytes; FcR stimulated, 1 μM): 7.46 ng/mL
- TNF-alpha (Monocytes; FcR stimulated, 1 μM): 11.02 ng/mL
- IL-1 (Monocytes; FcR stimulated, 3 μM): 5.50 ng/mL
- IL-6 (Monocytes; FcR stimulated, 3 μM): 5.93 ng/mL
- TNF-alpha (Monocytes; FcR stimulated, 3 μM): 14.11 ng/mL
- IL-1 (Monocytes; FcR stimulated, 10 μM): 7.44 ng/mL
- IL-6 (Monocytes; FcR stimulated, 10 μM): 5.86 ng/mL
- TNF-alpha (Monocytes; FcR stimulated, 10 μM): 16.44 ng/mL
- IL-1 (Monocytes; FcR stimulated, 30 μM): 7.77 ng/mL
- IL-6 (Monocytes; FcR stimulated, 30 μM): 6.20 ng/mL
- TNF-alpha (Monocytes; FcR stimulated, 30 μM): 14.85 ng/mL
- activation of myeloid cells by FcR stimulation (TNF-alpha, IL-1, IL-6 secretion) (Monocytes; monocytes, plate-coated anti-GD2 antibodies): directly enhanced the activation of myeloid cells by FcR stimulation, which resulted in increased secretion of TNF-alpha, IL-1 and IL-6
- IL-6 (Monocytes; unstimulated, 0.1 μM): 0.14 ng/mL
- IL-6 (Monocytes; unstimulated, 0.3 μM): 0.13 ng/mL
- IL-6 (Monocytes; unstimulated, 1 μM): 0.14 ng/mL
- IL-6 (Monocytes; unstimulated, 3 μM): 0.13 ng/mL
- IL-6 (Monocytes; unstimulated, 10 μM): 0.13 ng/mL
- IL-6 (Monocytes; unstimulated, 30 μM): 0.13 ng/mL
- TNF-alpha (Monocytes; unstimulated, 30 μM): 0.02 ng/mL
